34 molecules from US20240294465A1, “NOVEL ANTI-FIBROTIC DRUGS” (HELMHOLTZ ZENTRUM MUNCHEN - DEUTSCHES FORSCHUNGSZENTRUM FUR …, priority 2021, published 2024) can be followed below.

In the first experiment the test system is TGFβ1-induced fibulin-1 ECM deposition in primary human lung IPF-fibroblasts (phLFs). Put plainly: Assessing N23P activity in inhibiting ECM deposition in IPF-fibroblasts (fibulin-1 MFI). The class given is cell-based. The note with it: Homo sapiens, 72 h, 10 μM, TGFβ1 1 ng/ml, MFI, one or two different IPF-phLFs (n=1-2). On the procedure:
phLFs were cultured in DMEM F-12 medium with 20% fetal bovine serum (FBS) and antibiotic supplement as mentioned above. Cells were seeded with 6000 cells/well in 384-well CellCarrier plates (Perkin Elmer, Cat #6007550). Following overnight incubation, cells were starved in serum-reduced medium (1% FBS with 0.1 mM 2-phosphoascorbate (Sigma, Cat #49752)) for 24 h. Afterwards, cells were treated with TGFβ1 (1 ng/ml) or vehicle, and additionally small molecules or appropriate vehicle controls were added. After 72 h of incubation, medium was changed for starving medium with 1 μg/mL AlexaFluor-488 fluorophore conjugated anti-collagen-type-5 antibodies (SantaCruz, Clone C-5, Cat #sc-166155 AF488), 0.66 μg/mL AlexaFluor-555 fluorophore conjugated anti-collagen-type-1 antibodies (Rockland, Cat #600-401-103-0.1), and 1 μg/mL AlexaFluor-637 fluorophore conjugated anti-fibulin 1 antibodies (SantaCruz, Clone C-5, Cat #sc-25281 AF647) and 1 μg/mL Hoechst H33342 (Sigma). Fluorescenceconjugation of the collagen type 1 antibody was done by using the AlexaFluor-555 Protein Labeling Kit (Invitrogen, Cat #A20174) according to manufacturer's instructions. Labeling efficacy was controlled by photometrical means.
Following four hours of incubation, cells were washed three times with PBS and fixed with paraformaldehyde (PFA). For automated liquid handling in 384 well plates, an INTEGRA Assist Plus (INTEGRA, Zizers, Switzerland) equipped with an INTEGRA Viaflo 1I pipette (INTEGRA, Zizers, Switzerland, Cat #4642), 125 μL GripTips™ pipette tips (INTEGRA, Zizers, Switzerland, Cat #6464) and sterile reagent reservoirs (INTEGRA, Cat #4311) were applied. All automated pipetting steps with the INTEGRA Assist Plus were performed at 9.5 μL/s in order to ensure proper integrity and attachment of the deposited ECM to the culturing surface within the wells of the 384-well plates. During cell seeding the automated liquid handling was performed at 89.3 μL/s. Removal of liquids from the well-plates was done by manually inverting the plates.
Following fixation, the automated imaging was achieved by using aconfocal laser scanning microscope (LSM710, Zeiss) with automated focus detection for three-dimensional image acquisition (1024 px×1024 px×9 px which equals a dimension of 1417 μm×1417 μm×16 μm). For post-acquisition analysis images were imported into IMARIS software (Bitplane) and volume detection or alternatively quantification of the mean fluorescence intensity, as well as Hoechst-stained cell nuclei were automatically counted by using Imaris' spot detection algorithm.
Cells were seeded with 6000 cells/well in 384-well CellCarrier plates. After overnight incubation, cells were starved in serum-reduced medium (1% FBS with 0.1 mM 2-phosphoascorbate for 24 h). Then, phLFs were treated with TGFβ1 (1 ng/ml) or vehicle, and incubated together with synthesized N23Ps (10 μM) or appropriate vehicle controls. After 72 h of incubation, medium was changed for starvation medium with 1 μg/mL AlexaFluor-637 fluorophore conjugated anti-fibulin 1 antibodies (SantaCruz, Clone C-5, Cat #sc-25281 AF647) and 1 μg/mL Hoechst H33342 (Sigma). Following four hours of incubation, cells were washed three times with PBS and fixed with paraformaldehyde (PFA). Following fixation, the automated imaging was achieved by using a confocal laser scanning microscope (LSM710, Zeiss) with automated focus detection for three-dimensional image acquisition (1024 px×1024 px×9 px which equals a dimension of 1417 μm×1417 μm×16 μm). For post-acquisition analysis images were imported into IMARIS software (Bitplane) and quantified for the mean fluorescence intensity, as well as Hoechst-stained cell nuclei were automatically counted by using Imaris' spot detection algorithm.
Assessment of ECM inhibition I: Mean fluorescence intensity (MFI) values represented the degree of fibulin-1 ECM deposition in three different IPF-phLFs (n=3). […]
The inhibition is how much of the control response was suppressed. Low readings indicate little suppression, high ones strong suppression. Take `CCCCOc1ccccc1NC(=O)/C(=C/c1ccc(OC)cc1)C(C)C` [Example 82, (E)-N-(2-butoxyphenyl)-2-(4-methoxybenzylidene)-3-methylbutanamide]: the inhibition at 10 µM was in the range of 20 to 60%.

The molecule `CCCCOc1ccccc1NC(=O)/C=C/c1ccc2c(c1)OC(F)(F)O2` [Example 6] registered an inhibition at 10 µM of 20 to 60%.

As to `COc1ccc(/C=C/C(=O)Nc2ccccc2OCCC(F)(F)F)cc1` [Example 155, (E)-3-(4-methoxyphenyl)-N-(2-(3,3,3-trifluoropropoxy)phenyl)acrylamide], the inhibition at 10 µM fell in the range of 60 to 90%.

For `CCCCOc1ccccc1NC(=O)/C=C/c1ccc2nonc2c1` [Example 166, (E)-3-(benzo[c][1,2,5]oxadiazol-5-yl)-N-(2-butoxyphenyl)acrylamide], the inhibition at 10 µM fell in the range of 20 to 60%.

Take `CCCCOc1c(NC(=O)/C=C/c2ccc3[nH]ccc3c2)ccc(F)c1F` [Example 163, (E)-N-(2-butoxy-3,4-difluorophenyl)-3-(1H-indol-5-yl)acrylamide]: the inhibition at 10 µM was 20 to 60%.

With `C#CCCOc1ccccc1NC(=O)/C=C/c1ccc(OC)cc1` [Example 46, (E)-N-(2-(but-3-yn-1-yloxy)phenyl)-3-(4-methoxyphenyl)acrylamide], the inhibition at 10 µM lay in the range of 20 to 60%.

For `CCCCOc1ccccc1NC(=O)/C=C/c1ccc2c(c1)CCC(C)(C)O2` [Example 63], the inhibition at 10 µM fell in the range of 20 to 60%.

Turning to `C#CCCCOc1ccc(/C=C/C(=O)Nc2ccccc2OCCCC)cc1` [Example 83, (E)-N-(2-butoxyphenyl)-3-(4-(pent-4-yn-1-yloxy)phenyl)acrylamide], the inhibition at 10 µM was greater than 90%.

Regarding `O=C(/C=C/c1ccc2c(c1)OC(F)(F)O2)Nc1ccc(F)c(F)c1OCCC1CC1` [Example 156, (E)-N-(2-(2-cyclopropylethoxy)-3,4-difluorophenyl)-3-(2,2-difluorobenzo[d][1,3]dioxol-5-yl)acrylamide], the inhibition at 10 µM lay within 60 to 90%.

Molecule `CCCCOc1ccccc1NC(=O)/C=C/c1ccc2[nH]c(C)nc2c1` [Example 161, (E)-N-(2-butoxyphenyl)-3-(2-methyl-1H-benzo[d]imidazol-5-yl)acrylamide] had an inhibition at 10 µM greater than 90%.

`CCCCOc1ccccc1NC(=O)/C=C/c1ccc(S(C)(=O)=O)cc1` [Example 153, (E)-N-(2-butoxyphenyl)-3-(4-(methylsulfonyl)phenyl)acrylamide] returned an inhibition at 10 µM greater than 90%.

`C#CCCCOc1ccc(/C=C/C(=O)Nc2ccccc2OCCC2(C)N=N2)cc1` [Example 168, (E)-N-(2-(2-(3-methyl-3H-diazirin-3-yl)ethoxy)phenyl)-3-(4-(pent-4-yn-1-yloxy)phenyl)acrylamide] yielded an inhibition at 10 µM of 60 to 90%.

In turn, `C#CCOc1ccc(/C=C/C(=O)Nc2ccccc2OCCC2(C)N=N2)cc1` [Example 167, (E)-N-(2-(2-(3-methyl-3H-diazirin-3-yl)ethoxy)phenyl)-3-(4-(prop-2-yn-1-yloxy)phenyl)acrylamide] registered an inhibition at 10 µM of 60 to 90%.

Staying with this experiment, now noted: Homo sapiens, 72 h, 10 μM, TGFβ1 1 ng/ml, MFI, three different IPF-phLFs (n=3).
In the case of `CCCCOc1ccccc1N(C)C(=O)/C=C/c1ccc(OCC)cc1` [Example 71, (E)-N-(2-butoxyphenyl)-3-(4-ethoxyphenyl)-N-methylacrylamide], the inhibition at 10 µM fell in the range of 20 to 60%.

As for `CCCCOc1cc(Cl)ccc1NC(=O)/C=C/c1ccc(OC)cc1` [Example 21, (E)-N-(2-butoxy-4-chlorophenyl)-3-(4-methoxyphenyl)acrylamide], the inhibition at 10 µM was in the range of 20 to 60%.

`CCCCOc1ccccc1NC(=O)/C=C/c1ccc(OCC)cc1` [Example 20, (E)-N-(2-butoxyphenyl)-3-(4-ethoxyphenyl)acrylamide] returned an inhibition at 10 µM of 60 to 90%.

`CCCCOc1c(NC(=O)/C=C/c2ccc(OC)cc2)ccc(F)c1F` [Example 13] returned an inhibition at 10 µM greater than 90%.

As for `CCCCOc1ccccc1NC(=O)/C=C/c1ccc2c(c1)OC(F)(F)O2` [Example 6], the inhibition at 10 µM lay within 60 to 90%.

Molecule `COc1ccc(/C=C/C(=O)Nc2ccccc2OCc2ccc(Cl)cc2)cc1` [Example 45, (E)-N-(2-((4-chlorobenzyl)oxy)phenyl)-3-(4-methoxyphenyl)acrylamide] returned an inhibition at 10 µM greater than 90%.

`CCCCOc1ccccc1N(C)C(=O)/C=C/c1ccc(OC)c(OC)c1` [Example 67] came in with an inhibition at 10 µM greater than 90%.

For `COc1ccc(/C=C/C(=O)Nc2ccccc2OCCCC(F)(F)F)cc1` [Example 29, (E)-3-(4-methoxyphenyl)-N-(2-(4,4,4-trifluorobutoxy)phenyl)acrylamide], the inhibition at 10 µM lay within 20 to 60%.

As to `CCCCOc1ccccc1NC(=O)/C(C)=C/c1ccc(OC)cc1` [Example 79, (E)-N-(2-butoxyphenyl)-3-(4-methoxyphenyl)-2-methylacrylamide], the inhibition at 10 µM was in the range of 60 to 90%.

Regarding `CCCCOc1cccc(Cl)c1NC(=O)/C=C/c1ccc(OC)c(OC)c1` [Example 36, (E)-N-(2-butoxy-6-chlorophenyl)-3-(3,4-dimethoxyphenyl)acrylamide], the inhibition at 10 µM fell in the range of 60 to 90%.

`CCCCOc1ccccc1NC(=O)/C=C/c1ccc(OC(F)F)cc1` [Example 11, (E)-N-(2-butoxyphenyl)-3-(4-(difluoromethoxy)phenyl)acrylamide] came in with an inhibition at 10 µM of 60 to 90%.

In the case of `COc1ccc(/C=C/C(=O)Nc2ccccc2Oc2ccc(Cl)cc2)cc1` [Example 39, (E)-N-(2-(4-chlorophenoxy)phenyl)-3-(4-methoxyphenyl)acrylamide], the inhibition at 10 µM lay in the range of 60 to 90%.

`CCCCOc1ccccc1NC(=O)/C=C/c1ccc(OCC(F)(F)F)cc1` [Example 2, (E)-N-(2-butoxyphenyl)-3-(4-(2,2,2-trifluoroethoxy)phenyl)acrylamide] gave an inhibition at 10 µM of 60 to 90%.

Molecule `COc1ccc(/C=C/C(=O)Nc2ccccc2Oc2ccccc2)cc1` [Example 3, (E)-3-(4-methoxyphenyl)-N-(2-phenoxyphenyl)acrylamide] registered an inhibition at 10 µM greater than 90%.

For `CCCCOc1ccccc1NC(=O)/C=C/c1cccc(OC)c1` [Example 7, (E)-N-(2-butoxyphenyl)-3-(3-methoxyphenyl)acrylamide], the inhibition at 10 µM lay within 60 to 90%.

`CCCCOc1ccccc1NC(=O)/C=C/c1ccc2c(c1)CCO2` [Example 34, (E)-N-(2-butoxyphenyl)-3-(2,3-dihydrobenzofuran-5-yl)acrylamide] gave an inhibition at 10 µM greater than 90%.

For the molecule `COc1ccc(/C=C/C(=O)Nc2ccccc2Oc2ccccc2F)cc1` [Example 43, (E)-N-(2-(2-fluorophenoxy)phenyl)-3-(4-methoxyphenyl)acrylamide], the inhibition at 10 µM lay within 60 to 90%.

For the molecule `C#CCCCOc1ccc(/C=C/C(=O)Nc2ccccc2OCCCC)cc1` [Example 83, (E)-N-(2-butoxyphenyl)-3-(4-(pent-4-yn-1-yloxy)phenyl)acrylamide], the inhibition at 10 µM was greater than 90%.

With `COc1ccc(/C=C/C(=O)Nc2ccccc2OCCC2CC2)cc1` [Example 38, (E)-N-(2-(2-cyclopropylethoxy)phenyl)-3-(4-methoxyphenyl)acrylamide], the inhibition at 10 µM is greater than 90%.

`CCCCOc1ccccc1NC(=O)/C=C/c1cc(F)c(OC)c(F)c1` [Example 33, (E)-N-(2-butoxyphenyl)-3-(3,5-difluoro-4-methoxyphenyl)acrylamide] displayed an inhibition at 10 µM of 60 to 90%.

With `COc1ccc(/C=C/C(=O)Nc2ccccc2OCc2ccccc2)cc1` [Example 12, (E)-N-(2-(benzyloxy)phenyl)-3-(4-methoxyphenyl)acrylamide], the inhibition at 10 µM is greater than 90%.

`COc1ccc(/C=C/C(=O)Nc2ccccc2OCc2ccc(F)cc2)cc1` [Example 5, (E)-N-(2-((4-fluorobenzyl)oxy)phenyl)-3-(4-methoxyphenyl)acrylamide]: the inhibition at 10 µM is greater than 90%.

Staying with this experiment, now noted: at 10 μM.
On to `COc1ccc(/C=C/C(=O)Nc2ccccc2C(=O)O)cc1OC` [Tranilast, reference compound], for which the “inhibition of TGFβ1-induced ECM deposition” value is “no inhibition”.
